Test results taken from the NIST ThermoML archive (doi:10.1021/acs.jced.8b00132).
Several values for one entry are separate records, joined by “and”; a condition that tells them apart may be missing. Identical values can stand only once.

O=C(C(F)(F)C(F)(F)F)C(F)(C(F)(F)F)C(F)(F)F [dodecafluoro-2-methylpentan-3-one]
Conditions | thermal conductivity
359.78 K, 24942 kPa, Liquid, transient hot wire | 0.06009 W/m/K
359.79 K, 91 kPa, Gas, transient hot wire | 0.01762 W/m/K
359.79 K, 92 kPa, Gas, transient hot wire | 0.01704 W/m/K
359.83 K, 255 kPa, Gas, transient hot wire | 0.01639 W/m/K and 0.01638 W/m/K
359.85 K, 7097 kPa, Liquid, transient hot wire | 0.05177 W/m/K
359.85 K, 7099 kPa, Liquid, transient hot wire | 0.05171 W/m/K
359.89 K, 18005 kPa, Liquid, transient hot wire | 0.05715 W/m/K
359.9 K, 18006 kPa, Liquid, transient hot wire | 0.05719 W/m/K
359.92 K, 186 kPa, Gas, transient hot wire | 0.01654 W/m/K and 0.01651 W/m/K
359.92 K, 3418 kPa, Liquid, transient hot wire | 0.04946 W/m/K
359.93 K, 3420 kPa, Liquid, transient hot wire | 0.04957 W/m/K
359.99 K, 11963 kPa, Liquid, transient hot wire | 0.05432 W/m/K
360 K, 26 kPa, Gas, transient hot wire | 0.01679 W/m/K
360.01 K, 26 kPa, Gas, transient hot wire | 0.01682 W/m/K
360.01 K, 11965 kPa, Liquid, transient hot wire | 0.05404 W/m/K
360.03 K, 353 kPa, Liquid, transient hot wire | 0.0473 W/m/K
360.04 K, 353 kPa, Liquid, transient hot wire | 0.0473 W/m/K
360.05 K, 352 kPa, Liquid, transient hot wire | 0.04729 W/m/K and 0.0475 W/m/K
360.09 K, 92 kPa, Gas, transient hot wire | 0.01711 W/m/K and 0.01617 W/m/K
360.11 K, 7096 kPa, Liquid, transient hot wire | 0.05168 W/m/K
360.11 K, 7097 kPa, Liquid, transient hot wire | 0.0517 W/m/K
360.19 K, 3417 kPa, Liquid, transient hot wire | 0.04945 W/m/K
360.19 K, 3421 kPa, Liquid, transient hot wire | 0.04947 W/m/K
360.32 K, 353 kPa, Liquid, transient hot wire | 0.0473 W/m/K
360.33 K, 352 kPa, Liquid, transient hot wire | 0.0473 W/m/K and 0.04729 W/m/K
360.33 K, 353 kPa, Liquid, transient hot wire | 0.04728 W/m/K
360.34 K, 26 kPa, Gas, transient hot wire | 0.01682 W/m/K and 0.01675 W/m/K
373.92 K, 307 kPa, Gas, hot wire | 0.01816 W/m/K
373.92 K, 308 kPa, Gas, hot wire | 0.01812 W/m/K
373.97 K, 206 kPa, Gas, hot wire | 0.01727 W/m/K
373.97 K, 207 kPa, Gas, hot wire | 0.0173 W/m/K
374 K, 102 kPa, Gas, hot wire | 0.01713 W/m/K and 0.01722 W/m/K
374.03 K, 306 kPa, Gas, hot wire | 0.01829 W/m/K and 0.01823 W/m/K
374.08 K, 25 kPa, Gas, hot wire | 0.01652 W/m/K and 0.01647 W/m/K
374.1 K, 205 kPa, Gas, hot wire | 0.01731 W/m/K
374.1 K, 206 kPa, Gas, hot wire | 0.01733 W/m/K
374.14 K, 102 kPa, Gas, hot wire | 0.01694 W/m/K and 0.01695 W/m/K
374.15 K, 305 kPa, Gas, hot wire | 0.01837 W/m/K
374.17 K, 305 kPa, Gas, hot wire | 0.01816 W/m/K
374.21 K, 25 kPa, Gas, hot wire | 0.01648 W/m/K
374.22 K, 25 kPa, Gas, hot wire | 0.01645 W/m/K
374.23 K, 205 kPa, Gas, hot wire | 0.0174 W/m/K and 0.01741 W/m/K
374.28 K, 102 kPa, Gas, hot wire | 0.01696 W/m/K
374.28 K, 304 kPa, Gas, hot wire | 0.01841 W/m/K
374.28 K, 305 kPa, Gas, hot wire | 0.01852 W/m/K
374.29 K, 102 kPa, Gas, hot wire | 0.01693 W/m/K
374.35 K, 25 kPa, Gas, hot wire | 0.01656 W/m/K and 0.01653 W/m/K
374.36 K, 203 kPa, Gas, hot wire | 0.01755 W/m/K
374.37 K, 204 kPa, Gas, hot wire | 0.01751 W/m/K
374.42 K, 102 kPa, Gas, hot wire | 0.01695 W/m/K
374.42 K, 303 kPa, Gas, hot wire | 0.01848 W/m/K and 0.01842 W/m/K
374.43 K, 102 kPa, Gas, hot wire | 0.01693 W/m/K
374.49 K, 376 kPa, Gas, transient hot wire | 0.01734 W/m/K
374.5 K, 25 kPa, Gas, hot wire | 0.01656 W/m/K and 0.01659 W/m/K
374.5 K, 377 kPa, Gas, transient hot wire | 0.01734 W/m/K
374.51 K, 202 kPa, Gas, hot wire | 0.0176 W/m/K
374.51 K, 203 kPa, Gas, hot wire | 0.01762 W/m/K
374.52 K, 308 kPa, Gas, transient hot wire | 0.01738 W/m/K
374.53 K, 307 kPa, Gas, transient hot wire | 0.01737 W/m/K
374.58 K, 101 kPa, Gas, hot wire | 0.01698 W/m/K
374.59 K, 101 kPa, Gas, hot wire | 0.01691 W/m/K
374.59 K, 207 kPa, Gas, transient hot wire | 0.01758 W/m/K
374.6 K, 206 kPa, Gas, transient hot wire | 0.01761 W/m/K
374.66 K, 25 kPa, Gas, hot wire | 0.0166 W/m/K and 0.01657 W/m/K
374.69 K, 376 kPa, Gas, transient hot wire | 0.01733 W/m/K
374.7 K, 376 kPa, Gas, transient hot wire | 0.01734 W/m/K
374.74 K, 306 kPa, Gas, transient hot wire | 0.01741 W/m/K
374.81 K, 206 kPa, Gas, transient hot wire | 0.01763 W/m/K and 0.01767 W/m/K
374.92 K, 374 kPa, Gas, transient hot wire | 0.01739 W/m/K
374.92 K, 375 kPa, Gas, transient hot wire | 0.01742 W/m/K
374.97 K, 305 kPa, Gas, transient hot wire | 0.0175 W/m/K
374.97 K, 306 kPa, Gas, transient hot wire | 0.01752 W/m/K
375.05 K, 205 kPa, Gas, transient hot wire | 0.01769 W/m/K
375.15 K, 373 kPa, Gas, transient hot wire | 0.01743 W/m/K
375.15 K, 374 kPa, Gas, transient hot wire | 0.01735 W/m/K
375.2 K, 304 kPa, Gas, transient hot wire | 0.01738 W/m/K
375.21 K, 304 kPa, Gas, transient hot wire | 0.01741 W/m/K
375.3 K, 204 kPa, Gas, transient hot wire | 0.01791 W/m/K and 0.0176 W/m/K
375.4 K, 372 kPa, Gas, transient hot wire | 0.01754 W/m/K
375.4 K, 373 kPa, Gas, transient hot wire | 0.01755 W/m/K
375.47 K, 303 kPa, Gas, transient hot wire | 0.01756 W/m/K
375.48 K, 303 kPa, Gas, transient hot wire | 0.01757 W/m/K
375.57 K, 202 kPa, Gas, transient hot wire | 0.01755 W/m/K
